{"source": "paper PMC4264242", "about": "“Androgen Receptor Antagonists and Anti-Prostate Cancer Activities of Some Newly Synthesized Substituted Fused Pyrazolo-, Triazolo- and Thiazolo-Pyrimidine Derivatives” (International Journal of Molecular Sciences, 2014)", "note": "Entries after “also recorded” stand apart in the source; their conditions may differ."}
{"target": "T1, wild type AR in PC-3 cells (Homo sapiens, UniProt P10275)", "T1 construct": "expressed in transfected cells; host or cells: PC-3 cells (lack endogenous functional AR), transient transfection with SuperFect", "T1 sequence (P10275 1-920)": "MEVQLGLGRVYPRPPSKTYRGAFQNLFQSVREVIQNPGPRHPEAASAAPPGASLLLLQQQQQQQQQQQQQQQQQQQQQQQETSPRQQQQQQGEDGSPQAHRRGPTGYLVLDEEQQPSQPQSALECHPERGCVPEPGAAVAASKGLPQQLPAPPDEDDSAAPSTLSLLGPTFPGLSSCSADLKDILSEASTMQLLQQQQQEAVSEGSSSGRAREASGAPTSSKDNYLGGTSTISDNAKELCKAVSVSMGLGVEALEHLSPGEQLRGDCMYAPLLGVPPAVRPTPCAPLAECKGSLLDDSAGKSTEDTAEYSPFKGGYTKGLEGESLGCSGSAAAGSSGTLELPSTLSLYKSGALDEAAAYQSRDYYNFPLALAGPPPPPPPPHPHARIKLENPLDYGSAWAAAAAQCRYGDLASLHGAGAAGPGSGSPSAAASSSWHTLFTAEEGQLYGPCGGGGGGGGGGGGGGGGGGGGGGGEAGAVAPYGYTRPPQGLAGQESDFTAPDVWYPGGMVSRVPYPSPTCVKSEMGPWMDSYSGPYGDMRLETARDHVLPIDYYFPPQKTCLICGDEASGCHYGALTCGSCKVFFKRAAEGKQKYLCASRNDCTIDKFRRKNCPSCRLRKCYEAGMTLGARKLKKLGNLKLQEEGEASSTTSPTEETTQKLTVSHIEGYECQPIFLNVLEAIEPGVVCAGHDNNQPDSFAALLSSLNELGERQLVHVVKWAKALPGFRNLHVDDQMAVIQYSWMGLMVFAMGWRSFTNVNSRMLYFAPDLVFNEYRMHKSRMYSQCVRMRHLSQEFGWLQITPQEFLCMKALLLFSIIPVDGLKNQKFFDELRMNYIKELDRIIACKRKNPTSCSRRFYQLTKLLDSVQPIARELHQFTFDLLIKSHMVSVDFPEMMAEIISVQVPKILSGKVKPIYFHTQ", "assay": "Anti-prostate cancer screening, anti-androgenic bioassay (wild type AR transactivation) in PC-3 cells", "format": "cell-based", "settings": "PC-3 cells transfected with wild type AR, 1 nM DHT, 24 h", "protocol": "Human prostate cancer LNCaP and PC-3 cells were maintained in RPMI medium and Dulbecco’s minimum essential medium (DMEM), respectively. Both media were supplemented with penicillin (25 units/mL), streptomycin ([…]), and 10% fetal calf serum. For the androgen receptor transactivation assay, an androgen-dependent reporter gene transcription test was employed as the primary screening for potential anti-androgen identification. This assay was first performed in LNCaP cells, which express a clinically relevant mutant AR. […] Wild type AR transactivation assay was performed in PC-3 host cells, which lack an endogenous, functional AR. The method and conditions of cell and gene transfection have been described previously. In brief, cells were plated in 24-well tissue culture dishes for 24 (PC-3 cells) or 48 (LNCaP cells) h prior to transfection. Subsequently, LNCaP cells were transfected with a reporter gene, MMTV-luciferase, which contains a MMTV-long terminal repeat (LTR) promoter and an androgen receptor binding element, and Renilla Luciferase Control Reporter Vectors 40 (PRL-SV40), which served as an internal control for transfection efficiency. PC-3 cells were transfected with a wild type AR expression plasmid, plasmide gene-5 androgen recptor (pSG5AR), in addition to the above-mentioned MMTV-luciferase reporter gene and PRL-SV40 internal control. SuperFect (Qiagen, Chatsworth, CA, USA) was employed as the transfection reagent following the manufacturer’s recommendations. At the end of a 5-h transfection, the medium was changed to DMEM or RPMI supplemented with 10% charcoal dextran-stripped, i.e., androgen-depleted, serum. After 24 h, the cells were treated with 1 nM of DHT and/or test compounds at the designated concentrations.\nAfter 24 h the cells were harvested for luciferase activity assay using the Dual Luciferase Assay System (Promega, Madison, WI, USA.). The derived data was expressed as relative luciferase activity normalized to the internal luciferase control.", "units": {"IC50": "nM"}}
{"smiles": "N=c1c2cnn(-c3nc4c(ccc5ccccc54)s3)c2ncn1NC(=O)c1ccccc1", "note": "[Compound 11]", "IC50": 180}
{"smiles": "NNc1nc2c(ccc3ccccc32)s1", "note": "[Compound 1, 1-(naphtho[1,2-d]thiazol-2-yl)hydrazine]", "IC50 PC-3, anti-prostate cancer activity": "devoid from any activities; also recorded: Inactive"}
{"smiles": "N#Cc1cnn(-c2nc3c(ccc4ccccc43)s2)c1N", "note": "[Compound 2, 2-[3-Amino-4-cyanopyrazol-2-yl]naphthalino[1,2-d]thiazole]", "IC50": 157}
{"smiles": "N=c1sc(=S)[nH]c2c1cnn2-c1nc2c(ccc3ccccc32)s1", "note": "[Compound 6, 2-[6-Imino-3H-4-thiothiazino[4,5-c]pyrazol-2-yl]naphthalino[1,2-d]thiazole]", "IC50": 201}
{"smiles": "CCOC1SCC2NC(=O)c3cnn(-c4nc5c(ccc6ccccc65)s4)c3N21", "note": "(stereo not drawn) [Compound 13, 2-[3-Ethoxy-5-dihydro-6H-7-oxo-[1,3]thiazolo[3,4-b]pyrimidino[4,5-c]pyrazol-2-yl]naphthalino[1,2-d]thiazole]", "IC50": 146}
{"smiles": "Nc1nc(=S)[nH]c2c1cnn2-c1nc2c(ccc3ccccc32)s1", "note": "[Compound 5, 2-[6-Amino-3H-4-thiopyrimidino[4,5-c]pyrazol-2-yl]naphthalino[1,2-d]thiazole]", "IC50": 190}
{"smiles": "CCOC1SCC(=O)N1c1c(C#N)cnn1-c1nc2c(ccc3ccccc32)s1", "note": "(stereo not drawn) [Compound 12, 2-[3-(2-Ethoxy-4-oxo-5-dihydro-1,3-thiazol-3-yl)-4-cyanopyrazol-2-yl]-naphthalino[1,2-d]thiazole]", "IC50": 289}
{"smiles": "CCO/C=N\\c1c(C#N)cnn1-c1nc2c(ccc3ccccc32)s1", "note": "[Compound 8, 2-[3-Ethylimidoformat-4-cyanopyrazol-2-yl]naphthalino[1,2-d]thiazole]", "IC50": 279}
{"smiles": "Nc1ncnc2c1cnn2-c1nc2c(ccc3ccccc32)s1", "note": "[Compound 3]", "IC50": 177}
{"smiles": "Cc1nc2c3cnn(-c4nc5c(ccc6ccccc65)s4)c3ncn2n1", "note": "[Compound 10, 2-[6-Methyl[1,2,4]triazolo[2,3-c]pyrimidino[6,5-c]pyrazol-2-yl]naphthalino[1,2-d]thiazole]", "IC50": 109}
{"smiles": "N#Cc1cnn(-c2nc3c(ccc4ccccc43)s2)c1/N=C\\NN", "note": "[Compound 9, 2-[3-Imidoformic hydrazido-4-cyanopyrazol-2-yl]naphthalino[1,2-d]thiazole]", "IC50": 269}
{"smiles": "Nc1n[nH]c2c1cnn2-c1nc2c(ccc3ccccc32)s1", "note": "[Compound 4]", "IC50": 179}
